From article PMC13266984 (Journal of medicinal chemistry, 2026)

Legend:
[1] = molecular target: T1, Human ALDH3A1 (Homo sapiens, UniProt P30838); assay: ALDH3A1 biochemical assay (benzaldehyde/NADP+, diaphorase-resazurin readout, 1,536-well)
T1 sequence (P30838 1-453): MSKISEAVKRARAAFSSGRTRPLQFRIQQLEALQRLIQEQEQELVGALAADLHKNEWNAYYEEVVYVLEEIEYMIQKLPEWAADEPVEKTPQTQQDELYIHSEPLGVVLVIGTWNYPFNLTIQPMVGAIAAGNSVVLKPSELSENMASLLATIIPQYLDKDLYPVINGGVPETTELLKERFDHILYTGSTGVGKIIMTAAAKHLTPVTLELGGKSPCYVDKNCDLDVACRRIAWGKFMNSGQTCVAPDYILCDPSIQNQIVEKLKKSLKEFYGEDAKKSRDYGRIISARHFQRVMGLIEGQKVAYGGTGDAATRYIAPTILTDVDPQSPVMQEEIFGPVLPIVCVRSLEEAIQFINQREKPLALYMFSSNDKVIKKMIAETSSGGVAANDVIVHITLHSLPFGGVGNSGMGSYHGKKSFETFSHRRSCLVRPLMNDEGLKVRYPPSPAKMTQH

[2] = molecular target: T2, OE19 (3A1) (Homo sapiens, UniProt P30838); assay: Cellular ALDEFLUOR assay in OE19 cells (preferential ALDH3A1 expression)
T2 sequence (P30838 1-453): T1 sequence (P30838 1-453)

[3] = Table S5, biochemical curve class
[4] = Table S4, biochemical curve class

Row | Compound | Efficacy ([1]; Table S5, biochemical) | CC-v2 [1, 3] | Cell_Efficacy ([2]; Table S5, OE19 cells) | Cell_CC-v2 ([2]; Table S5, cellular curve class) | AC50 [1] | Efficacy ([1]; Table S4, biochemical) | CC-v2 [1, 4] | AC50 [2] | Cell_Efficacy ([2]; Table S4, OE19 cells) | Cell_CC-v2 ([2]; Table S4, cellular curve class)
1 | Cc1cccc(CNC(=O)c2csc(N3CCN(c4ccc(N5CCOCC5)cc4)CC3)n2)c1 [NCGC01211186-01] | – | – | – | – | 4080 nM | -37.13 | -1.2 | 3130 nM | -98.82 | -1.1
2 | Cc1cccc(CNC(=O)c2csc(N3CCN(c4ccc(O)cc4)CC3)n2)c1 [NCGC01211126-01] | – | – | – | – | 5760 nM | -62.10 | -1.2 | 15700 nM | -68.34 | -1.2
3 | COc1cc(N2CCN(c3nc(C(=O)NCc4cccc(C)c4)cs3)CC2)cc(OC)c1OC [NCGC01211386-01] | – | – | – | – | 3640 nM | -76.22 | -1.2 | 9880 nM | -70.97 | -1.2
4 | Cc1cccc(CNC(=O)c2csc(N3CCN(c4ccc(C5(C#N)CC5)cc4)CC3)n2)c1 [NCGC01210256-01] | – | – | – | – | 14500 nM | -66.81 | -1.2 | 15700 nM | -71.00 | -1.4
5 | COc1c(F)cc(N2CCN(c3nc(C(=O)NCc4cccc(C)c4)cs3)CC2)cc1F [NCGC01211123-01] | – | – | – | – | 580 nM | -77.80 | -1.2 | 1760 nM | -94.45 | -1.2
6 | Cc1cccc(CNC(=O)c2csc(N3CCN(c4cccc([S+](=O)([O-])C(F)(F)F)c4)CC3)n2)c1 [NCGC01210726-01] | – | – | – | – | 18200 nM | -54.32 | -1.2 | 15700 nM | -81.37 | -1.2
7 | Cc1cccc(CNC(=O)c2csc(N3CCN(c4cccc([N+](=O)[O-])c4)CC3)n2)c1 [Compound 8] | – | – | – | – | 360 nM | -84.72 | -1.1 | 500 nM | -115.29 | -2.1
8 | Cc1cccc(CNC(=O)c2csc(N3CCN(c4cccc(C#N)c4)CC3)n2)c1 [NCGC01210664-01] | – | – | – | – | 1020 nM | -83.70 | -1.1 | 11100 nM | -103.93 | -2.1
9 | Cc1cccc(CNC(=O)c2csc(N3CCN(c4cccc(Sc5ccc(C)cc5C)c4)CC3)n2)c1 [NCGC01211184-01] | – | – | – | – | – | -26.97 | 4 | 310 nM | -95.63 | -1.1
10 | Cc1cccc(CNC(=O)c2csc(N3CCN(c4cc(Cl)c(Cl)c(Cl)c4)CC3)n2)c1 [NCGC01211545-01] | – | – | – | – | 580 nM | -72.19 | -1.2 | 390 nM | -73.43 | -1.2
11 | Cc1ccc(-c2cccc(CNC(=O)c3csc(N4CCN(c5cccc(C(F)(F)F)c5)CC4)n3)c2)cc1 [Compound 19] | -83.86 | -1.1 | -77.01 | -1.1 | 23.7 nM | – | – | 10.2 nM | – | –
12 | COc1ccc(N2CCN(c3nc(C(=O)NCc4cccc(C)c4)cs3)CC2)cc1O [NCGC01211394-01] | – | – | – | – | 1150 nM | -71.12 | -1.2 | 15700 nM | -88.85 | -2.3
13 | COc1ccc(N2CCN(c3nc(C(=O)NCc4cccc(C)c4)cs3)CC2)cc1OC [NCGC01211669-01] | – | – | – | – | 6470 nM | -51.05 | -1.2 | 8810 nM | -91.42 | -1.1
14 | Cc1cccc(CNC(=O)c2csc(N3CCN(c4c(Cl)cccc4Cl)CC3)n2)c1 [NCGC01211131-01] | – | – | – | – | 510 nM | -89.06 | -1.1 | 3130 nM | -61.19 | -1.4
15 | Cc1cccc(CNC(=O)c2csc(N3CCN(c4ccc(OC(F)(F)F)cc4)CC3)n2)c1 [NCGC01211384-01] | – | – | – | – | 650 nM | -96.17 | -1.1 | 3930 nM | -82.59 | -1.1
16 | COc1ccc(Cl)c(N2CCN(c3nc(C(=O)NCc4cccc(C)c4)cs3)CC2)c1 [NCGC01211381-01] | – | – | – | – | 580 nM | -89.43 | -1.1 | 31300 nM | -102.69 | -2.3
17 | Cc1cccc(CNC(=O)c2csc(N3CCN(c4ccc(C5(C#N)CCCCC5)cc4)CC3)n2)c1 [NCGC01210611-01] | – | – | – | – | 730 nM | -77.35 | -1.2 | 620 nM | -33.71 | -1.2
18 | O=C(NCc1cccc(N2CCC2=O)c1)c1csc(N2CCN(c3cccc(C(F)(F)F)c3)CC2)n1 [Compound 20] | -96.26 | -1.1 | -81.94 | -1.2 | 63.1 nM | – | – | 10.8 nM | – | –
19 | Cc1cc(CNC(=O)c2csc(N3CCN(c4cccc(C(F)(F)F)c4)CC3)n2)ccc1Cl [Compound 16] | -106.26 | -1.1 | -81.01 | -1.1 | 7.9 nM | – | – | 34.2 nM | – | –

The next lines start with the values.

Row | Efficacy ([1]; Table S5, biochemical) | CC-v2 [1, 3] | Cell_Efficacy ([2]; Table S5, OE19 cells) | Cell_CC-v2 ([2]; Table S5, cellular curve class) | AC50 [1] | Efficacy ([1]; Table S4, biochemical) | CC-v2 [1, 4] | AC50 [2] | Cell_Efficacy ([2]; Table S4, OE19 cells) | Cell_CC-v2 ([2]; Table S4, cellular curve class) | Compound
20 | -7.18 | 4 | 0.00 | 4 | – | – | – | – | – | – | CC(C)(C)c1cc(CNC(=O)c2csc(N3CCN(c4cccc(C(F)(F)F)c4)CC3)n2)cc(C(C)(C)C)c1 [NCGC01407780-01]
21 | -98.89 | -1.1 | -73.69 | -1.4 | 39.8 nM | – | – | 342 nM | – | – | O=C(NCc1ccc2c(c1)COC2=O)c1csc(N2CCN(c3cccc(C(F)(F)F)c3)CC2)n1 [NCGC01396481-01]
22 | -100.75 | -1.1 | -91.56 | -1.1 | 14.1 nM | – | – | 1080 nM | – | – | COc1cc(C)cc(CNC(=O)c2csc(N3CCN(c4cccc(C(F)(F)F)c4)CC3)n2)c1 [NCGC01407935-01]
23 | – | – | – | – | 1020 nM | -96.39 | -1.1 | 990 nM | -85.92 | -1.1 | Cc1cccc(CNC(=O)c2csc(N3CCN(c4cccc(F)c4)CC3)n2)c1 [NCGC01219288-01]
24 | -20.50 | 4 | -125.53 | -2.1 | – | – | – | 7080 nM | – | – | O=C(Nc1ccc(CNC(=O)c2csc(N3CCN(c4cccc(C(F)(F)F)c4)CC3)n2)cc1)c1ccncc1 [NCGC01397389-01]
25 | -100.05 | -1.1 | -101.81 | -1.1 | 5.6 nM | – | – | 766 nM | – | – | N#Cc1ccc(CNC(=O)c2csc(N3CCN(c4cccc(C(F)(F)F)c4)CC3)n2)cc1F [NCGC01397293-01]
26 | -53.79 | -1.2 | 0.00 | 5 | 398 nM | – | – | – | – | – | O=C(NCc1ccc2c(c1)CNC2=O)c1csc(N2CCN(c3cccc(C(F)(F)F)c3)CC2)n1 [NCGC01397290-02]
27 | -21.51 | 5 | -99.22 | -1.1 | 200 nM | – | – | 20000 nM | – | – | Cc1cccc(COc2ccc(CNC(=O)c3csc(N4CCN(c5cccc(C(F)(F)F)c5)CC4)n3)cc2)c1 [NCGC01407816-01]
28 | -100.97 | -1.1 | -79.11 | -1.3 | 25.1 nM | – | – | 342 nM | – | – | CC(=O)c1cccc(CNC(=O)c2csc(N3CCN(c4cccc(C(F)(F)F)c4)CC3)n2)c1 [NCGC01397289-01]
29 | -60.58 | -1.2 | -10.99 | 5 | 447 nM | – | – | 398 nM | – | – | O=C(NCc1ccc2c(c1)C(=O)NCC2)c1csc(N2CCN(c3cccc(C(F)(F)F)c3)CC2)n1 [NCGC01397286-01]
30 | -80.39 | -1.1 | -92.90 | -1.3 | 398 nM | – | – | 31.6 nM | – | – | O=C(COc1cccc(CNC(=O)c2csc(N3CCN(c4cccc(C(F)(F)F)c4)CC3)n2)c1)NC1CC1 [NCGC01407783-01]
31 | -100.75 | -1.1 | -93.55 | -1.3 | 35.5 nM | – | – | 4310 nM | – | – | O=C(NCc1ccc(F)c(F)c1)c1csc(N2CCN(c3cccc(C(F)(F)F)c3)CC2)n1 [NCGC01407951-01]
32 | -26.41 | -1.4 | -108.81 | -1.1 | 398 nM | – | – | 2240 nM | – | – | O=C(NCc1ccc(Oc2ccc(F)cc2)cc1)c1csc(N2CCN(c3cccc(C(F)(F)F)c3)CC2)n1 [NCGC01407922-01]
